Data: the NIST ThermoML archive (doi:10.1021/je1012235)

Settings: 101.33 kPa, Liquid; for mass density: Vibrating tube method

CCCCCCCC/C=C\CCCCCCCCCCCC(=O)OC [methyl (Z)-13-docosenoate]
Settings	mass density [kg/m3]	viscosity [mPa·s]
278.15 K	881.6	18.09
283.15 K	877.9	14.94
288.15 K	874.3	12.56
293.15 K	870.7	10.66
298.15 K	867.1	9.141
303.15 K	863.6	7.907
308.15 K	860	6.917
313.15 K	856.5	5.958
318.15 K	853	5.402
323.15 K	849.4	4.76
328.15 K	845.9	4.331
333.15 K	842.4	3.91
338.15 K	839	3.548
343.15 K	835.5	3.234
348.15 K	832	2.961
353.15 K	828.6	2.707
358.15 K	825.1	2.51
363.15 K	821.7	2.322

CCCCCC/C=C\CCCCCCCC(=O)OC [methyl (Z)-9-hexadecenoate]
Settings	mass density [kg/m3]	viscosity [mPa·s]
278.15 K	880.4	6.169
283.15 K	876.6	5.367
288.15 K	872.8	4.662
293.15 K	869	4.107
298.15 K	865.2	3.647
303.15 K	861.4	3.289
308.15 K	857.6	2.943
313.15 K	853.8	2.616
318.15 K	850	2.422
323.15 K	846.3	2.175
328.15 K	842.5	2.03
333.15 K	838.7	1.87
338.15 K	834.9	1.728
343.15 K	831.1	1.595
348.15 K	827.3	1.482
353.15 K	823.5	1.366
358.15 K	819.8	1.29
363.15 K	816	1.207

CCCCCCCCCCCCCCCCCCCCCC(=O)OC [methyl docosanoate]
Settings	mass density [kg/m3]	viscosity [mPa·s]
333.15 K	834.5	4.749
338.15 K	831	4.274
343.15 K	827.5	3.866
348.15 K	824.1	3.513
353.15 K	820.6	3.207
358.15 K	817.2	2.939
363.15 K	813.7	2.709
368.15 K	810.3	2.502
373.15 K	806.9	2.317

CC/C=C\C/C=C\C/C=C\CCCCCCCC(=O)OCC [ethyl 9,12,15-octadecatrienoate]
Settings	mass density [kg/m3]	viscosity [mPa·s]
278.15 K	904.6	6.282
283.15 K	900.8	5.538
288.15 K	897	4.921
293.15 K	893.3	4.401
298.15 K	889.5	3.961
303.15 K	885.8	3.583
308.15 K	882	3.258
313.15 K	878.3	2.975
318.15 K	874.6	2.728
323.15 K	870.9	2.511
328.15 K	867.2	2.32
333.15 K	863.5	2.151
338.15 K	859.9	2
343.15 K	856.2	1.866
348.15 K	852.5	1.745
353.15 K	848.9	1.636
358.15 K	845.3	1.538
363.15 K	841.6	1.449
368.15 K	838	1.368
373.15 K	834.5	1.295

CCCCCCCCCCCCCCCCCCCCCCCC(=O)OC [methyl tetracosanoate]
Settings	mass density [kg/m3]	viscosity [mPa·s]
338.15 K	830.5	5.139
343.15 K	827.1	4.628
348.15 K	823.7	4.189
353.15 K	820.3	3.81
358.15 K	816.9	3.48
363.15 K	813.5	3.19
368.15 K	810.1	2.933
373.15 K	806.8	2.707

CCCCCCCC/C=C\CCCCCCCCCC(=O)OC [methyl cis-11-eicosenoate]
Settings	mass density [kg/m3]	viscosity [mPa·s]
278.15 K	884.8	14.34
283.15 K	881.1	11.97
288.15 K	877.5	10.13
293.15 K	873.8	8.667
298.15 K	870.2	7.488
303.15 K	866.6	6.528
308.15 K	863	5.738
313.15 K	859.5	5.08
318.15 K	855.9	4.529
323.15 K	852.3	4.062
328.15 K	848.8	3.665
333.15 K	845.2	3.323
338.15 K	841.7	3.028
343.15 K	838.2	2.771
348.15 K	834.6	2.546
353.15 K	831.1	2.348
358.15 K	827.6	2.174
363.15 K	824.1	2.019
368.15 K	820.7	1.881
373.15 K	817.3	1.758

CCCCCCCCCCCCCCCCCCCC(=O)OC [methyl eicosanoate]
Settings	mass density [kg/m3]	viscosity [mPa·s]
323.15 K	842.3	4.832
328.15 K	838.7	4.323
333.15 K	834.9	3.889
338.15 K	831.4	3.517
343.15 K	827.8	3.196
348.15 K	824.3	2.918
353.15 K	820.8	2.674
358.15 K	817.3	2.461
363.15 K	813.8	2.273
368.15 K	810.4	2.107
373.15 K	807	1.959

CCCCCCCCCCCCCCCCCCCC(=O)OCC [ethyl eicosanoate]
Settings	mass density [kg/m3]	viscosity [mPa·s]
318.15 K	841.2	5.657
323.15 K	837.7	4.973
328.15 K	834.1	4.507
333.15 K	830.5	4.058
338.15 K	827	3.671
343.15 K	823.5	3.337
348.15 K	820	3.046
353.15 K	816.6	2.78
358.15 K	813.2	2.569
363.15 K	809.7	2.372
368.15 K	806.1	2.196
373.15 K	802.4	2.039

CCCCC/C=C\C/C=C\CCCCCCCC(=O)OCC [ethyl linoleate]
Settings	mass density [kg/m3]	viscosity [mPa·s]
278.15 K	893.8	8.188
283.15 K	890	7.084
288.15 K	886.3	6.165
293.15 K	882.6	5.423
298.15 K	878.8	4.807
303.15 K	875.2	4.307
308.15 K	871.5	3.854
313.15 K	867.8	3.406
318.15 K	864.2	3.161
323.15 K	860.6	2.829
328.15 K	856.9	2.641
333.15 K	853.3	2.429
338.15 K	849.7	2.241
343.15 K	846	2.075
348.15 K	842.4	1.927
353.15 K	838.8	1.773
358.15 K	835.2	1.676
363.15 K	831.6	1.569

CC/C=C\C/C=C\C/C=C\CCCCCCCC(=O)OC [methyl (Z,Z,Z)-9,12,15-octadecatrienoate]
Settings	mass density [kg/m3]	viscosity [mPa·s]
278.15 K	913.2	6.361
283.15 K	909.5	5.618
288.15 K	905.7	5.003
293.15 K	901.9	4.484
298.15 K	898.2	4.043
303.15 K	894.5	3.667
308.15 K	890.7	3.341
313.15 K	887	2.925
318.15 K	883.3	2.675
323.15 K	879.6	2.472
328.15 K	876	2.303
333.15 K	872.3	2.123
338.15 K	868.6	1.966
343.15 K	864.9	1.817
348.15 K	861.2	1.688
353.15 K	857.6	1.583
358.15 K	853.9	1.488
363.15 K	850.3	1.402
368.15 K	–	1.327
373.15 K	–	1.253
